From patent publication US11357819B2, “Cytocidal agent” (FUJITA ACADEMY, priority 2017, dated 2022)
Entries after “also recorded” stand apart in the source; their conditions may differ. Read-outs that look alike come from different tables or passages of the source. Where a SMILES comes first, the peptide text is derived from it. [ ]: non-standard residue; d: D form.

Columns and labels:
[1] = tested on: A431-CNGB3-myc cells; assay: Cytocidal activity by ATP amount (CellTiter-Glo luminescence) in peptide-treated A431-CNGB3-myc cells; assay type: cell-based, human; conditions: for cytocidal activity (relative ATP amount %): Example 6, A431-CNGB3-myc cells, 2.34 to 300.0 μM, FIG. 10
Procedure: A transformed cell (A431-CNGB3-myc cell) obtained by introducing a gene encoding human CNGB3, in which an myc tag was fused in a C-terminal, into an A431 cell (human epithelial-like cell cancer-derived cell strain) and forcibly expressing thereof was prepared as an endometriosis model cell.
Culturing of the A431-CNGB3-myc cell was performed at 37° C. in a 5 volume % carbon dioxide environment using a medium in which 10% of inactivated FBS (bovine fetal serum, manufactured by Corning Corporation) and 1% of penicillin-streptomycin (manufactured by Invitrogen Corporation) were contained in a DMEM High Glucose medium (manufactured by GIBCO Corporation), as a culture medium. Passage was performed every two or three days.
The cytocidal activity of each peptide was evaluated by measuring an ATP amount in A431-CNGB3-myc cells treated with each peptide using CellTiter-Glo (registered trademark) assay kit (manufactured by Promega).
Specifically, first, A431-CNGB3-myc cells after 2 passages were disseminated into a 96-well plate (manufactured by Corning/Costar, Lot No. 00515003) so as to be 1×10^4 cells/well by preparing the concentration of the cells. After culturing for 2 days after the dissemination, each peptide was added to each well such that a final concentration was […], 75, or 150 μM, respectively, and cultured for 24 hours. Thereafter, the culture supernatant was removed from each well, and CellTiter-Glo buffer was added to the remaining cells, and after homogenization, the supernatant was recovered by centrifugation and used as a lysate. A double quantity of PBS and a 2×CellTiterGlo Reagent of the equivalent amount of the lysate were added to the lysate and stirred to obtain a reaction solution, and the reaction solution was stood at room temperature for 10 minutes. The luminescence intensity (Luminescence) (RLU: RELATIVE LIGHT UNITS) of the reaction solution after standing at room temperature was measured using a Synergy H1 hybrid multi-mode microplate reader (manufactured by BioTek Corporation). The luminescence intensity of the reaction solution is an indicator of the amount of ATP. It is shown that the smaller the luminescence intensity of the reaction solution is, the amount of ATP is small, and the cytocidal activity of the administered peptide is strong. All trials were measured in triplicate and the average was evaluated as the cytocidal activity at the concentration of each peptide.
The final concentration of each peptide added to the A431-CNGB3-myc cells disseminated into the 96-well plate was set to be 2.34, 4.69, 9.38, 18.8, 37.5, 75, or 150 μM, and the cytocidal activity of each peptide was evaluated in the same manner as that of Reference Example 1, except that the culture time after addition of the peptide was set to 20 hours. In the evaluation of the cytocidal activity against the A431-CNGB3-myc cells of each peptide, the measurement result of the fluorescence intensity (RLU) of each reaction solution is shown in FIG. 2. In the figure, “1” to “16” show the result of the reaction solution to which peptides 1 to 16 of Table 2 were added, respectively.
The cytocidal activity of each peptide was evaluated in the same manner as that of Example 1, except that the final concentration of each peptide added to each cell disseminated into the 96-well plate was set to be 0 (peptide non-added), 2.34, 4.69, 9.38, 18.8, 37.5, 75.0, 150.0, or 300.0 μM. A relative fluorescence intensity (%) of each reaction solution in a case Where the fluorescence intensity (RLU) of the reaction solution to which no peptide was added was set to 100% was calculated as a relative ATP amount (%). […]

[2] = tested on: Ishikawa, SNG-II, Hec-1A and RL95-2 cells (cell strains derived from a uterine cancer cell); assay: Cytocidal activity by relative ATP amount (CellTiter-Glo) in cell strains derived from uterine cancer cells; assay type: cell-based, human; conditions: Example 6, 2.34 to 300.0 μM, 20 hours, FIGS. 11 to 14
Procedure: As the cancer-derived cell strain, an Ishikawa cell derived from human endometrium gland cancer, an SNG-II cell derived from human endometrium cancer, an Hec-1A cell derived from human uterine body cancer, and a RL95-2 cell derived from human endometrium cancer were used. The cells were cultured in the same manner as the A431-CNG133-myc cells.
The cytocidal activity of each peptide was evaluated in the same manner as that of Example 1, except that the final concentration of each peptide added to each cell disseminated into the 96-well plate was set to be 0 (peptide non-added), 2.34, 4.69, 9.38, 18.8, 37.5, 75.0, 150.0, or 300.0 μM. A relative fluorescence intensity (%) of each reaction solution in a case Where the fluorescence intensity (RLU) of the reaction solution to which no peptide was added was set to 100% was calculated as a relative ATP amount (%). In the figure, the “14D−Z13+5D−Z13” represents a relative ATP amount of the reaction solution to which both of a peptide A2-1 and a peptide A2-2 were added, the “14D−Z13” represents a relative ATP amount of the reaction solution to which only the peptide A2-1 was added, the “5D−Z13” represents a relative ATP amount of the reaction solution to Which only the peptide A2-2 was added, and the “14D−5D−Z13” represents a relative ATP amount (%) of the reaction solution to which only the peptide A2 was added, respectively.

[3] = in vivo
Procedure: A weight of each mouse was measured before being died of bleeding.
As a result, in the control group into which a peptide was not administered (n=8), the number of dead individuals after 24 days from transplanting the A431-CNGB3-myc cells into the peritoneal cavity was 1, and the alive rate was […]. With respect to this, in a group into which the IF7 (RR)−(K+H) peptide was administered such that the IF7 (RR)−(K+H) peptide was 10 μg/body/day or 50 μg/body (n=6), the alive rate was 100%. In addition, at the time of the end of the test, the spread of cancer cells (A431-CNGB3-myc cells) in the peritoneal cavity of all mice was examined.

[4] = Reference Example 1, peptide 35.5, 75 or 150 μM, 24 hours, FIG. 1
[5] = Example 1, peptide 2.34 to 150 μM, 20 hours, FIG. 2

Compound: KLAKLAK-KLAKLAK-HLAHLAH-HLAHLAH-VRRADNRPG (KLAKLAKKLAKLAKHLAHLAHHLAHLAHVRRADNRPG; D-residues) [WT]
- cytocidal activity (luminescence intensity RLU, indicator of ATP amount) [1, 4]: concentration-dependent cytocidal activity
- cytocidal activity, comparison between peptides [1, 4]: stronger cytocidal activity than the peptide D5E

Compound: HLAHLAH-HLAHLAH-KLAKLAK-VRRADNRPG (HLAHLAHHLAHLAHKLAKLAKVRRADNRPG; HLAH(14)-KLAK(13)-Z13 peptide) [Peptide 16]
- cytocidal activity, comparison between peptides [1, 5]: stronger cytocidal activity than the longest peptide 9

Compound: KLAKLAK-KLAKLAK-VRRADNRPG (KLAKLAKKLAKLAKVRRADNRPG; KLAK(14D)-Z13 peptide) [Peptide A2-1]
- cytocidal activity (relative ATP amount %) ([1]; 20 hours): hardly observed or significantly weak
- cytocidal activity (relative ATP amount %) [2]: hardly observed or significantly weak

Compound: CC(C)C[C@@H](NC(=O)[C@H](N)CCCCN)C(=O)N[C@H](C)C(=O)N[C@H](CCCCN)C(=O)N[C@H](CC(C)C)C(=O)N[C@H](C)C(=O)N[C@H](CCCCN)C(=O)N[C@H](CCCCN)C(=O)N[C@H](CC(C)C)C(=O)N[C@H](C)C(=O)N[C@H](CCCCN)C(=O)N[C@H](CC(C)C)C(=O)N[C@H](C)C(=O)N[C@H](CCCCN)C(=O)N[C@H](Cc1c[nH]cn1)C(=O)N[C@H](CC(C)C)C(=O)N[C@H](C)C(=O)N[C@H](Cc1c[nH]cn1)C(=O)N[C@H](CC(C)C)C(=O)N[C@H](C(=O)N[C@@H](CCCNC(=N)N)C(=O)N[C@@H](CCCNC(=N)N)C(=O)N[C@@H](C)C(=O)N[C@@H](CC(=O)O)C(=O)N[C@@H](CC(N)=O)C(=O)N[C@@H](CCCNC(=N)N)C(=O)N1CCC[C@H]1C(=O)NCC(=O)O)C(C)C [Peptide A2, KLAKLAK-KLAKLAK-HLAHL-VRRADNRPG] (H-[dK][dL][dA][dK][dL][dA][dK][dK][dL][dA][dK][dL][dA][dK][dH][dL][dA][dH][dL]VRRADNRPG-OH)
- weight of each mouse ([3]; ip): no particular change

Compound: KLAKLAK-KLAKLAK-HLAHLAH-VRRADNRPG (KLAKLAKKLAKLAKHLAHLAHVRRADNRPG; KLAK(14)-HLAH(7)-Z13 peptide) [Peptide 8]
- cytocidal activity, comparison between peptides [1, 5]: stronger cytocidal activity than the longest peptide 1; also recorded: strongest cytocidal activity

Compound: CC[C@H](C)[C@H](N)C(=O)N[C@@H](Cc1ccccc1)C(=O)N[C@@H](CC(C)C)C(=O)N[C@@H](CC(C)C)C(=O)N[C@@H](Cc1c[nH]c2ccccc12)C(=O)N[C@@H](CCC(N)=O)C(=O)N[C@@H](CCCNC(=N)N)C(=O)N[C@@H](CCCNC(=N)N)C(=O)N[C@@H](CCCNC(=N)N)C(=O)N[C@H](CCCCN)C(=O)N[C@H](CC(C)C)C(=O)N[C@H](C)C(=O)N[C@H](CCCCN)C(=O)N[C@H](CC(C)C)C(=O)N[C@H](C)C(=O)N[C@H](CCCCN)C(=O)N[C@H](CCCCN)C(=O)N[C@H](CC(C)C)C(=O)N[C@H](C)C(=O)N[C@H](CCCCN)C(=O)N[C@H](CC(C)C)C(=O)N[C@H](C)C(=O)N[C@H](CCCCN)C(=O)N[C@H](Cc1c[nH]cn1)C(=O)N[C@H](CC(C)C)C(=O)N[C@H](C)C(=O)N[C@H](Cc1c[nH]cn1)C(=O)N[C@H](CC(C)C)C(=O)O [IF7 (RR)−(K+H) peptide, IFLLWQR-RR-KLAKLAK-KLAKLAK-HLAHL] (H-IFLLWQRRR[dK][dL][dA][dK][dL][dA][dK][dK][dL][dA][dK][dL][dA][dK][dH][dL][dA][dH][dL]-OH)
- weight of each mouse [3]: no particular change

Compound: KLAKLAK-KLAKLAK-HLAHLAH-HLAHLAH-VRRAENRPG (KLAKLAKKLAKLAKHLAHLAHHLAHLAHVRRAENRPG; KLAK(14)-HLAH(14)-D5E peptide) [Peptide D5E]
- cytocidal activity (luminescence intensity RLU, indicator of ATP amount) [1, 4]: concentration-dependent cytocidal activity

Compound: HLAHL-VRRADNRPG (HLAHLVRRADNRPG; KLAK(14)-HLAH(5)-Z13 peptide) [Peptide A2-2]
- cytocidal activity (relative ATP amount %) ([1]; 20 hours): hardly observed or significantly weak
- cytocidal activity (relative ATP amount %) [2]: hardly observed or significantly weak
